Assay results reported in PubChem BioAssay (NCI).
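Method: 48-hour compound exposure of cells in 96-well plates, five concentrations, linear interpolation of endpoints. The concentration for full growth arrest is given as TGI.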

Experiments:
Experiment in all cases: inhibition of tumour cell growth, NCI panel, 48 h
786-0 renal = tested on: 786-0 renal
A549 NSCLC = tested on: A549 NSCLC
ACHN renal = tested on: ACHN renal
CAKI-1 renal = tested on: CAKI-1 renal
CCRF-CEM leukemia = tested on: CCRF-CEM leukemia
DLD-1 colon = tested on: DLD-1 colon
DMS 114 small cell lung = tested on: DMS 114 small cell lung
EKVX NSCLC = tested on: EKVX NSCLC
HCC-2998 colon = tested on: HCC-2998 colon
HCT-116 colon = tested on: HCT-116 colon
HL-60(TB) leukemia = tested on: HL-60(TB) leukemia
HOP-18 NSCLC = tested on: HOP-18 NSCLC
HOP-62 NSCLC = tested on: HOP-62 NSCLC
HOP-92 NSCLC = tested on: HOP-92 NSCLC
HT29 colon = tested on: HT29 colon
IGROV1 ovarian = tested on: IGROV1 ovarian
K-562 leukemia = tested on: K-562 leukemia
KM12 colon = tested on: KM12 colon
LOX IMVI melanoma = tested on: LOX IMVI melanoma
LXFL 529 NSCLC = tested on: LXFL 529 NSCLC
M14 melanoma = tested on: M14 melanoma
M19-MEL melanoma = tested on: M19-MEL melanoma
MALME-3M melanoma = tested on: MALME-3M melanoma
MOLT-4 leukemia = tested on: MOLT-4 leukemia
NCI-H226 lung = tested on: NCI-H226 lung
NCI-H23 lung = tested on: NCI-H23 lung
NCI-H460 lung = tested on: NCI-H460 lung
NCI-H522 lung = tested on: NCI-H522 lung
OVCAR-3 ovarian = tested on: OVCAR-3 ovarian
OVCAR-4 ovarian = tested on: OVCAR-4 ovarian
OVCAR-5 ovarian = tested on: OVCAR-5 ovarian
OVCAR-8 ovarian = tested on: OVCAR-8 ovarian
RPMI-8226 leukemia = tested on: RPMI-8226 leukemia
RXF 393 renal = tested on: RXF 393 renal
RXF-631 renal = tested on: RXF-631 renal
SF-268 CNS = tested on: SF-268 CNS
SF-295 CNS = tested on: SF-295 CNS
SF-539 CNS = tested on: SF-539 CNS
SK-MEL-2 melanoma = tested on: SK-MEL-2 melanoma
SK-MEL-5 melanoma = tested on: SK-MEL-5 melanoma
SK-OV-3 ovarian = tested on: SK-OV-3 ovarian
SN12C renal = tested on: SN12C renal
SNB-19 CNS = tested on: SNB-19 CNS
SNB-78 CNS = tested on: SNB-78 CNS
SR leukemia = tested on: SR leukemia
SW-620 colon = tested on: SW-620 colon
TK-10 renal = tested on: TK-10 renal
U251 CNS = tested on: U251 CNS
UACC-257 melanoma = tested on: UACC-257 melanoma
UACC-62 melanoma = tested on: UACC-62 melanoma
UO-31 renal = tested on: UO-31 renal
XF 498 CNS = tested on: XF 498 CNS
A498 renal = tested on: A498 renal
COLO 205 colon = tested on: COLO 205 colon
HCT-15 colon = tested on: HCT-15 colon
KM20L2 colon = tested on: KM20L2 colon
SK-MEL-28 melanoma = tested on: SK-MEL-28 melanoma
SNB-75 CNS = tested on: SNB-75 CNS

CC(=O)/C(=C\c1ccccc1)C(=O)Nc1ccccc1
TGI (786-0 renal): > 100 µM | TGI (A549 NSCLC): > 100 µM | TGI (ACHN renal): > 100 µM | TGI (CAKI-1 renal): > 100 µM | TGI (CCRF-CEM leukemia): > 100 µM | TGI (DLD-1 colon): > 100 µM | TGI (DMS 114 small cell lung): > 100 µM | TGI (EKVX NSCLC): > 100 µM | TGI (HCC-2998 colon): > 100 µM | TGI (HCT-116 colon): > 100 µM | TGI (HL-60(TB) leukemia): > 100 µM | TGI (HOP-18 NSCLC): > 100 µM | TGI (HOP-62 NSCLC): > 100 µM | TGI (HOP-92 NSCLC): > 100 µM | TGI (HT29 colon): > 100 µM | TGI (IGROV1 ovarian): > 100 µM | TGI (K-562 leukemia): > 100 µM | TGI (KM12 colon): > 100 µM | TGI (LOX IMVI melanoma): > 100 µM | TGI (LXFL 529 NSCLC): > 100 µM | TGI (M14 melanoma): > 100 µM | TGI (M19-MEL melanoma): > 100 µM | TGI (MALME-3M melanoma): > 100 µM | TGI (MOLT-4 leukemia): > 100 µM | TGI (NCI-H226 lung): > 100 µM | TGI (NCI-H23 lung): > 100 µM | TGI (NCI-H460 lung): > 100 µM | TGI (NCI-H522 lung): > 100 µM | TGI (OVCAR-3 ovarian): > 100 µM | TGI (OVCAR-4 ovarian): > 100 µM | TGI (OVCAR-5 ovarian): > 100 µM | TGI (OVCAR-8 ovarian): > 100 µM | TGI (RPMI-8226 leukemia): > 100 µM | TGI (RXF 393 renal): > 100 µM | TGI (RXF-631 renal): > 100 µM | TGI (SF-268 CNS): > 100 µM | TGI (SF-295 CNS): > 100 µM | TGI (SF-539 CNS): > 100 µM | TGI (SK-MEL-2 melanoma): > 100 µM | TGI (SK-MEL-5 melanoma): > 100 µM | TGI (SK-OV-3 ovarian): > 100 µM | TGI (SN12C renal): > 100 µM | TGI (SNB-19 CNS): > 100 µM | TGI (SNB-78 CNS): > 100 µM | TGI (SR leukemia): > 100 µM | TGI (SW-620 colon): > 100 µM | TGI (TK-10 renal): > 100 µM | TGI (U251 CNS): > 100 µM | TGI (UACC-257 melanoma): > 100 µM | TGI (UACC-62 melanoma): > 100 µM | TGI (UO-31 renal): > 100 µM | TGI (XF 498 CNS): > 100 µM

COC(=O)[C@]1(C)CCC[C@]2(C)C3CC4OOC3(C=C4C(C)(C)O)CCC21 (stereo partly specified)
TGI (786-0 renal): > 100 µM | TGI (A498 renal): > 100 µM | TGI (A549 NSCLC): > 100 µM | TGI (ACHN renal): > 100 µM | TGI (CAKI-1 renal): > 100 µM | TGI (CCRF-CEM leukemia): 57.8 µM | TGI (COLO 205 colon): > 100 µM | TGI (DLD-1 colon): > 100 µM | TGI (DMS 114 small cell lung): > 100 µM | TGI (EKVX NSCLC): > 100 µM | TGI (HCT-116 colon): > 100 µM | TGI (HCT-15 colon): > 100 µM | TGI (HL-60(TB) leukemia): 32 µM | TGI (HOP-62 NSCLC): > 100 µM | TGI (HT29 colon): 56.9 µM | TGI (IGROV1 ovarian): > 100 µM | TGI (K-562 leukemia): 64.3 µM | TGI (KM12 colon): > 100 µM | TGI (KM20L2 colon): > 100 µM | TGI (LOX IMVI melanoma): > 100 µM | TGI (LXFL 529 NSCLC): 65.6 µM | TGI (M14 melanoma): > 100 µM | TGI (M19-MEL melanoma): > 100 µM | TGI (MALME-3M melanoma): > 100 µM | TGI (MOLT-4 leukemia): 67.3 µM | TGI (NCI-H226 lung): > 100 µM | TGI (NCI-H23 lung): > 100 µM | TGI (NCI-H460 lung): > 100 µM | TGI (NCI-H522 lung): 47.3 µM | TGI (OVCAR-3 ovarian): > 100 µM | TGI (OVCAR-4 ovarian): > 100 µM | TGI (OVCAR-5 ovarian): > 100 µM | TGI (OVCAR-8 ovarian): > 100 µM | TGI (RPMI-8226 leukemia): 37.3 µM | TGI (RXF-631 renal): > 100 µM | TGI (SF-268 CNS): > 100 µM | TGI (SF-295 CNS): > 100 µM | TGI (SF-539 CNS): > 100 µM | TGI (SK-MEL-2 melanoma): > 100 µM | TGI (SK-MEL-5 melanoma): > 100 µM | TGI (SK-OV-3 ovarian): > 100 µM | TGI (SN12C renal): > 100 µM | TGI (SNB-19 CNS): > 100 µM | TGI (SNB-78 CNS): > 100 µM | TGI (SW-620 colon): > 100 µM | TGI (TK-10 renal): > 100 µM | TGI (U251 CNS): > 100 µM | TGI (UACC-257 melanoma): > 100 µM | TGI (UACC-62 melanoma): > 100 µM | TGI (XF 498 CNS): 46.7 µM

O=C1C(c2ccccc2)=[N+]([O-])c2ccc(Cl)cc21
TGI (786-0 renal): > 100 µM | TGI (A498 renal): > 100 µM | TGI (A549 NSCLC): > 100 µM | TGI (ACHN renal): 56.7 µM | TGI (CCRF-CEM leukemia): > 100 µM | TGI (COLO 205 colon): 28.9 µM | TGI (DLD-1 colon): 51.3 µM | TGI (DMS 114 small cell lung): 25.6 µM | TGI (EKVX NSCLC): 47.3 µM | TGI (HCT-116 colon): 34.7 µM | TGI (HCT-15 colon): 64.2 µM | TGI (HL-60(TB) leukemia): 38.5 µM | TGI (HOP-18 NSCLC): > 100 µM | TGI (HOP-62 NSCLC): > 100 µM | TGI (HOP-92 NSCLC): 0.096 µM | TGI (HT29 colon): 56.1 µM | TGI (IGROV1 ovarian): 57 µM | TGI (K-562 leukemia): > 100 µM | TGI (KM12 colon): > 100 µM | TGI (KM20L2 colon): > 100 µM | TGI (LOX IMVI melanoma): 32.7 µM | TGI (LXFL 529 NSCLC): 34.9 µM | TGI (M14 melanoma): > 100 µM | TGI (M19-MEL melanoma): 42.1 µM | TGI (MALME-3M melanoma): 61.8 µM | TGI (MOLT-4 leukemia): 81.6 µM | TGI (NCI-H226 lung): 49.9 µM | TGI (NCI-H23 lung): > 100 µM | TGI (NCI-H460 lung): > 100 µM | TGI (NCI-H522 lung): 31 µM | TGI (OVCAR-3 ovarian): 59.9 µM | TGI (OVCAR-5 ovarian): 61.5 µM | TGI (OVCAR-8 ovarian): 30.5 µM | TGI (RPMI-8226 leukemia): > 100 µM | TGI (RXF 393 renal): 29.1 µM | TGI (RXF-631 renal): 86.2 µM | TGI (SF-268 CNS): 62.4 µM | TGI (SF-295 CNS): > 100 µM | TGI (SF-539 CNS): 38.5 µM | TGI (SK-MEL-2 melanoma): > 100 µM | TGI (SK-MEL-28 melanoma): 48.8 µM | TGI (SK-MEL-5 melanoma): 35.2 µM | TGI (SK-OV-3 ovarian): > 100 µM | TGI (SN12C renal): 67.4 µM | TGI (SNB-19 CNS): > 100 µM | TGI (SNB-75 CNS): > 100 µM | TGI (SR leukemia): > 100 µM | TGI (SW-620 colon): 93.3 µM | TGI (TK-10 renal): 77.9 µM | TGI (U251 CNS): 65.1 µM | TGI (UACC-257 melanoma): 46.8 µM | TGI (UACC-62 melanoma): 35 µM | TGI (UO-31 renal): > 100 µM | TGI (XF 498 CNS): 35.8 µM
